For orientation: MIC means the smallest concentration in the dilution series that meets the test's criterion for growth inhibition.

Assay [1] concerns Streptococcus mutans (ATCC strain 25175). The assay can be described thus: Minimum inhibitory concentration (MIC) against Streptococcus mutans, 2-fold serial dilution in broth, visual scoring. The format is cell-based. Conditions: S. mutans ATCC 25175, TSB, overnight at 35° C., anaerobic chamber; for MIC: Streptococcus mutans, ATCC25175. The method, then:
(§1) The minimum inhibitory concentration (MIC) values against Streptococcus mutans for a collection of prenylated flavonoids of varying octanol/water partition coefficients (Log P) were determined using a conventional protocol. A culture of Streptococcus mutans (S. mutans, ATCC strain 25175) was grown overnight (18-24 hour incubation time at 35° C.) in a Tryptone Soy Broth (TSB. BD, Becton, Dickinson and Company, Sparks, Md., USA) and adjusted to deliver a target count of between 2×10^7 and 2×10^8 CFU/mL using a turbidimetric target density at 600 nm. The inoculum was then diluted 1/1000 in TSB for S. mutans. A volume of 100 μL of inoculum was added to a row of wells (12 wells per row) of a 96-well plate for which the MIC value of a test compound would be determined. An additional 95 μL of inoculum was added to the first well in that row. For each compounded tested obtained as a pure isolate in DMSO (Phytolab GmbH, Germany), 5 μL of a stock solution (2 mg compound/mL DMSO) was also added to the first well in that row. Then, a 2-fold serial dilution was performed where 100 μL of the first well was transferred to the second well in a row and mixed with 100 μL of growth medium. This was repeated until the last well of a row was reached. In the last well, 100 μL was discarded such that all wells contained 100 μL. The plates were covered and incubated overnight at 35° C. in an anaerobic chamber (85/10/5; N2, CO2, H2) without agitation. The procedure was repeated row by row until each compound was serially diluted. Multiple plates were used if necessary. […] The MIC value was determined for each compounded tested in a row by identifying the well with the lowest concentration of test compound in the serial dilution necessary to maintain a clear well.

For assay [2], the system named is Porphyromonas gingivalis (ATCC strain 33277). The assay can be described thus: Minimum inhibitory concentration (MIC) against Porphyromonas gingivalis, 2-fold serial dilution in Minimal Medium+, visual scoring. Conditions: P. gingivalis ATCC 33277, Minimal Medium+, overnight at 35° C., anaerobic chamber; for MIC: Porphyromonas gingivalis, ATCC33277. Type of assay: cell-based. The method, then:
The minimum inhibitory concentration (MIC) values against Porphyromonas gingivalis for a collection of prenylated flavonoids of varying octanol/water partition coefficients (Log P) were determined using a conventional protocol. A culture of Porphyromonas gingivalis (P. gingivalis, ATCC strain 33277) from glycerol stock was grown with a gas mix of 85% nitrogen, 10% CO2, and 5% hydrogen for 48-72 hours at 33° C. by inoculating a large loopful in MTGE (Anaerobe Systems, Morgan Hill, Calif., USA). Following incubation in MTGE, the optical density was adjusted to deliver a target count of between 2×10^7 and 2×10^8 CFU/mL using a turbidimetric target density at 600 nm using P. gingivalis Minimal Medium+. Minimal Medium+ is a growth medium containing 10 mM monosodium phosphate, 10 mM potassium chloride, 10 mM magnesium chloride, 7.7 μM hemin, 2.9 μM menadione, 30 g/L alphaglobuline from bovine blood, 250 μM calcium chloride, 100 mL/L fetal bovine serum, adjusted to pH 7.0 with NaOH. It is made by mixing alphaglobuline in water, adding salts, adjusting to pH 7.0 with NaOH, filtering using […] filter, then adding hemin, menadione, and fetal bovine serum.
as §1, with “The” for “The minimum inhibitory concentration (MIC) values against Streptococcus mutans for a collection of prenylated flavonoids of varying octanol/water partition coefficients (Log P) were determined using a conventional protocol. A culture of Streptococcus mutans (S. mutans, ATCC strain 25175) was grown overnight (18-24 hour incubation time at 35° C.) in a Tryptone Soy Broth (TSB. BD, Becton, Dickinson and Company, Sparks, Md., USA) and adjusted to deliver a target count of between 2×10^7 and 2×10^8 CFU/mL using a turbidimetric target density at 600 nm. The”, “1/50” for “1/1000”, “Minimal Medium+” for “TSB”, “P. gingivalis.” for “S. mutans.”

Molecules are shown by their SMILES. Values after ≈ are worked out from the molar mass of the structure shown.

For the molecule `CC(C)=CCc1c(O)cc2c(c1O)C(=O)C[C@@H](c1ccc(O)cc1)O2` [6-Prenylnaringenin], the MIC was 15.6 µg/mL (≈ 45.9 µM) in assay [1] and 25 µg/mL (≈ 73.4 µM) in assay [2].

For the molecule `CC(C)=CCc1c(O)cc(O)c2c1O[C@H](c1ccc(O)cc1)CC2=O` [8-Prenylnaringenin], the minimum inhibitory concentration (MIC) is 12.5 µg/mL (≈ 36.7 µM) in assay [1] and 50 µg/mL (≈ 147 µM) in assay [2].

In the case of `CC(C)=CCc1cc([C@@H]2CC(=O)c3ccc(O)c(CC=C(C)C)c3O2)cc(CC=C(C)C)c1O` [(−)-Sophoranone], in assay [1], the “MIC (S. mutans)” value was found to be 125 ppm. Moreover, in assay [2], the “MIC (P. gingivalis)” value is given as 50 ppm.

For the molecule `CC(C)=CCc1cc(C(=O)/C=C/c2ccc(O)cc2)c(O)cc1O` [Bavachalcone], the “MIC (S. mutans)” value in assay [1] was 3.125 ppm. The “MIC (P. gingivalis)” value in assay [2] is 12.5 ppm.

Consider `CC(C)=CCc1cc2c(cc1O)O[C@H](c1ccc(O)cc1)CC2=O` [Bavachin], for which the figures for the MIC in assay [1] and in assay [2] were greater than 500 µg/mL and 31.2 µg/mL (≈ 96.3 µM), respectively.

Turning to `CC(C)=CCC/C(C)=C/Cc1cc(-c2coc3cc(O)ccc3c2=O)ccc1O` [Corylifol A], the “MIC (S. mutans)” value in assay [1] is reported as greater than 500 ppm. In addition, the “MIC (P. gingivalis)” value in assay [2] came out at 15.625 ppm.

For the molecule `COc1ccc(-c2oc3c(CC=C(C)C)c(O[C@@H]4O[C@H](CO)[C@@H](O)[C@H](O)[C@H]4O)cc(O)c3c(=O)c2O[C@@H]2O[C@@H](C)[C@H](O)[C@@H](O)[C@H]2O)cc1` [Icariin], the minimum inhibitory concentration (MIC) is greater than 500 µg/mL in assay [1] and 50 µg/mL (≈ 73.9 µM) in assay [2].

Take `COc1ccc(-c2oc3c(CC=C(C)C)c(O)cc(O)c3c(=O)c2O)cc1` [Icaritin]: the MIC in assay [1] and in assay [2] was greater than 500 µg/mL throughout.

For `CC(C)=CCc1c(O)ccc(C(=O)/C=C/c2ccc(O)cc2)c1O` [Isobavachalcone], the minimum inhibitory concentration (MIC) in assay [1] turned out to be 1.56 µg/mL (≈ 4.82 µM); in assay [2], 12.5 µg/mL (≈ 38.5 µM).

In the case of `COc1cc(O)c(CC=C(C)C)c2c1C(=O)CC(c1ccc(O)cc1)O2` (stereo not shown) [Isoxanthohumol], the MIC amounted to 50 µg/mL (≈ 141 µM) in assay [1] and 25 µg/mL (≈ 70.5 µM) in assay [2].

As to `C=C(C)[C@H](CC=C(C)C)Cc1c(O)cc(OC)c2c1O[C@H](c1ccc(O)cc1O)CC2=O` [Kurarinone], the minimum inhibitory concentration (MIC) came to 3.91 µg/mL (≈ 8.91 µM) in assay [1] and 15.6 µg/mL (≈ 35.6 µM) in assay [2].

As to `CC(C)=CCc1c(-c2ccc(O)cc2O)oc2c(CC=C(C)C)c(O)cc(O)c2c1=O` [Kuwanon C], the “MIC (S. mutans)” value in assay [1] is on record as 0.9766 ppm. Besides, the “MIC (P. gingivalis)” value in assay [2] amounted to 7.8125 ppm.

For `CC(C)=CCc1c(-c2ccc(O)cc2O)oc2c([C@H]3C=C(C)C[C@@H](c4ccc(O)cc4O)[C@@H]3C(=O)c3ccc(O)cc3O)c(O)cc(O)c2c1=O` [Kuwanon G], in assay [1], the “MIC (S. mutans)” value is 3.125 ppm. Moreover, in assay [2], the “MIC (P. gingivalis)” value is reported as 125 ppm.

Take `CC(C)=CCc1cc(-c2coc3cc(O)ccc3c2=O)ccc1O` [Neobavaisoflavone]: the MIC came to 12.5 µg/mL (≈ 38.8 µM) in assay [1] and 31.2 µg/mL (≈ 96.9 µM) in assay [2].

Regarding `COc1cc(O)c(C(=O)[C@@H]2[C@H](CC=C(C)C)C(C)=CC[C@H]2c2ccccc2)c(O)c1` [Panduratin A], the “MIC (S. mutans)” value in assay [1] is reported as 0.7813 ppm. The “MIC (P. gingivalis)” value in assay [2] is recorded as 0.488 ppm.

As for `C=C(C)[C@H](CC=C(C)C)Cc1c(O)cc(O)c2c1O[C@H](c1ccc(O)cc1O)CC2=O` [Sophoraflavanone G], the “MIC (S. mutans)” value in assay [1] is 1.5625 ppm. The “MIC (P. gingivalis)” value in assay [2] is given as 12.5 ppm.

As to `COc1cc(O)c(CC=C(C)C)c(O)c1C(=O)/C=C/c1ccc(O)cc1` [Xanthohumol], the figures for the MIC in assay [1] and in assay [2] were 3.12 µg/mL (≈ 8.82 µM) and 12.5 µg/mL (≈ 35.3 µM), respectively.

The values are drawn from patent US20220096364A1, “Oral Care Compositions Comprising Prenylated Flavonoid” (The Procter & Gamble Company, priority 2020, published 2022).
